Laboratory results published in patent US7326689B2, “Pseudomycins useful against plant diseases” (Eli Lilly and Company, priority 2000, dated 2008).
Values joined by “and” are separate entries in the source; they are usually repeats but may differ in a detail not shown here. Equal values may be shown once.

Legend:
Experiment in all cases: Antifungal growth assay in potato dextrose broth, 24-well
Type in all cases: cell-based
Geotrichim candidum = settings: 3x assays
Procedure: (§1) Fungi to be tested were propagated on potato dextrose agar (PDA) plates at room temperature. Stock solutions of pseudomycins and depsipeptide were suspended in dimethylsulfoxide (DMSO) (Sigma) at 5 mg/ml and stored at −20C. Serial dilutions of compounds were done the day of the experiment. All serial dilutions were made in DMSO. […] These are noted in the raw data section.
(§2) Assays were performed in 24-well cell culture clusters (Costar 3524), with 990 ul potato dextrose broth (PDB, Difco) and 10 ul of the compound to be tested in each well. Initial concentrations tested were 50-1.56 ug/ml (final concentration of pseudomycin). Actual concentrations of pseudomycins tested were 50, 25, 12.5, 6.25, 3.12 and 1.56 ug/ml. Each well was inoculated with the appropriate fungus. Unless noted, the fungal inoculum consisted of an ˜4 mm^2 piece of PDA with fungal mycelium. The exceptions were as follows. Ustilago maydis: this fungus grows much like a yeast on PDA, and cells were scraped from the PDA stock plate, resuspended in PDB and 10 ul inoculum added to each well. Monilinia sp.: this fungal mycelium grows as a very loose sheet on top of PDA and would not adhere to agar blocks. Fungal mycelium was ground with a metal rod in 500 ul PDB and 10 ul inoculum was added to each well. Mycosphaeella fijiensis, Septoria passerinii, Septoria triticii: these fungi all grow very slowly and the results were difficult to score if a small piece of agar with fungal mycelium on it was used as an inoculum. For these fungi, the mycelium was ground with a metal rod in 500 ul PDB and 10 ul inoculum was added to each well.
(§3) Wells were scored for fungal growth at two days and five days. Some slow growing fungi were scored at later days for growth because assessment was not possible at two or five days. Growth was scored by comparison to a control consisting of fungus inoculated into 990 ul potato dextrose broth and 10 ul of DMSO (Dimethylsulfoxide). An additional control consisting of fungal inoculum in PDB only was performed to ensure that the DMSO was not inhibitory to fungal growth.
(§4) For assays that were repeated, new stock solutions were made from a second shipment of pseudomycins. Note that pseudomycin B′ and depsipeptide stock solutions were remade from first shipment materials because these were not included in the second shipment. […] Actual concentrations of pseudomycins tested were 2, 1, 0.5, 0.25, 0.125 and 0.0625 ug/ml. A-PO4 and A-FB=pseudomycin A phosphate salt and free base respectively.
(§5) Table 2: Two day results—concentration indicated is lowest level of compound (ug /ml) that results is no growth. NI, no inhibition; p (partial), at least 50% inhibited; -, not determined. If number of assays was greater than one, number of assays performed on the fungus is noted in parentheses. For several slow-growing fungi, days elapsed before observation (if different than two) are noted.
(§6) Table 3: Five day results—concentration indicated is lowest level of compound (ug /ml) that results in no growth. NI, no inhibition; p (partial), at least 50% inhibited; -, not performed on the fungus is noted in parentheses. For several slow-growing fungi, days elapsed before observation (if different than five) are noted.

Septoria passerinii = settings: 3x assays
Procedure: as §1, §2, §3, §4, §5, §6

Penicillium roqueforti = settings: 3x assays
Procedure: as §1, §2, §3, §4, §5, §6

[1] = test system: Mycosphaeella fijiensis (8088/88); settings: 3x assays
Procedure: as §1, §2, §3, §4, §5, §6

Ustilago maydis = settings: 3x assays
Procedure: as §1, §2, §3, §4, §5, §6

Monilinia sp. = settings: 2x assays
Procedure: as §1, §2, §3, §4, §5, §6

Rhizoctonia solani = settings: 2x assays
Procedure: as §1, §2, §3, §4, §5, §6

[2] = test system: Mycosphaeella fijiensis (Sigatoka); settings: 3x assays
Procedure: as §1, §2, §3, §4, §5, §6

Drechslera portulacae = settings: 3x assays
Procedure: as §1, §2, §3, §4, §5, §6

Septoria tritici = settings: 3x assays
Procedure: as §1, §2, §3, §4, §5, §6

Phoma chrysamthecola = test system: Phoma chrysamthecola; parameters: key: NI, no inhibition; p (partial), at least 50% inhibited; settings: five day results
Procedure: as §1, §2, §3, §4, §5, §6

Aphanomyces sp. = test system: Aphanomyces sp.; parameters: key: NI, no inhibition; p (partial), at least 50% inhibited; settings: 2x assays
Procedure: as §1, §2, §3, §4, §5, §6

Drechslera teres = test system: Drechslera teres; parameters: key: NI, no inhibition; p (partial), at least 50% inhibited
Procedure: as §1, §2, §3, §4, §5, §6

Phytophthora cinnemani = test system: Phytophthora cinnemani; parameters: key: NI, no inhibition; p (partial), at least 50% inhibited
Procedure: as §1, §2, §3, §4, §5, §6

[3] = test system: Fusarium oxysporum cubense; parameters: key: NI, no inhibition; p (partial), at least 50% inhibited
Procedure: as §1, §2, §3, §4, §5, §6

Phytophthora ultimum = test system: Phytophthora ultimum; parameters: key: NI, no inhibition; p (partial), at least 50% inhibited
Procedure: as §1, §2, §3, §4, §5, §6

Diplodia natalensis = test system: Diplodia natalensis; parameters: key: NI, no inhibition; p (partial), at least 50% inhibited
Procedure: as §1, §2, §3, §4, §5, §6

Fusarium solani = test system: Fusarium solani; parameters: key: NI, no inhibition; p (partial), at least 50% inhibited
Procedure: as §1, §2, §3, §4, §5, §6

Alternaria helianthi = test system: Alternaria helianthi; parameters: key: NI, no inhibition; p (partial), at least 50% inhibited; settings: 2x assays
Procedure: as §1, §2, §3, §4, §5, §6

Stagonospora nodorum = test system: Stagonospora nodorum; parameters: key: NI, no inhibition; p (partial), at least 50% inhibited
Procedure: as §1, §2, §3, §4, §5, §6

Tapesia acuformis = test system: Tapesia acuformis; parameters: key: NI, no inhibition; p (partial), at least 50% inhibited; settings: 2x assays
Procedure: as §1, §2, §3, §4, §5, §6

[4] = Table 2 (two day results), observed at 7 day
[5] = Table 3 (five day results), observed at 21 days
[6] = Table 3 (five day results), observed at 9 day

Pseudomycin C
lowest level of compound that results in no growth (Geotrichim candidum; five day results): 25 µg/mL
lowest level of compound that results in no growth (Geotrichim candidum; two day results): 3.12 µg/mL
lowest level of compound that results in no growth (Septoria passerinii; five day results): 0.0625 µg/mL and 0.06 µg/mL
lowest level of compound that results in no growth (Septoria passerinii; two day results): 0.06 µg/mL
lowest level of compound that results in no growth (Penicillium roqueforti; five day results): 12.5 µg/mL
lowest level of compound that results in no growth (Penicillium roqueforti; two day results): 1.56 µg/mL
lowest level of compound that results in no growth [1, 4]: 0.125 µg/mL
lowest level of compound that results in no growth [1, 5]: 0.25 µg/mL
lowest level of compound that results in no growth (Ustilago maydis; five day results): 0.25 µg/mL
lowest level of compound that results in no growth (Ustilago maydis; two day results): 0.25 µg/mL
lowest level of compound that results in no growth (Monilinia sp.; five day results): 12.5 µg/mL
lowest level of compound that results in no growth (Monilinia sp.; two day results): 6.25 µg/mL
lowest level of compound that results in no growth (Rhizoctonia solani; five day results): p at 50
lowest level of compound that results in no growth (Rhizoctonia solani; two day results): 25 µg/mL
lowest level of compound that results in no growth [2, 4]: 1.56 µg/mL
lowest level of compound that results in no growth [2, 5]: 1.56 µg/mL
lowest level of compound that results in no growth (Drechslera portulacae; [6]): 0.0625 µg/mL and 0.06 µg/mL
lowest level of compound that results in no growth (Drechslera portulacae; two day results): 0.06 µg/mL
lowest level of compound that results in no growth (Septoria tritici; five day results): 0.25 µg/mL
lowest level of compound that results in no growth (Septoria tritici; two day results): 0.125 µg/mL
lowest level of compound that results in no growth (Phoma chrysamthecola): NI
lowest level of compound that results in no growth (Aphanomyces sp.; five day results): 50 µg/mL
lowest level of compound that results in no growth (Aphanomyces sp.; two day results): 25 µg/mL
lowest level of compound that results in no growth (Drechslera teres; five day results): NI
lowest level of compound that results in no growth (Drechslera teres; two day results): NI
lowest level of compound that results in no growth (Phytophthora cinnemani; five day results): NI
lowest level of compound that results in no growth (Phytophthora cinnemani; two day results): NI
lowest level of compound that results in no growth ([3]; five day results): NI
lowest level of compound that results in no growth ([3]; two day results): NI
lowest level of compound that results in no growth (Phytophthora ultimum; five day results): NI
lowest level of compound that results in no growth (Phytophthora ultimum; two day results): NI
lowest level of compound that results in no growth (Diplodia natalensis; five day results): NI
lowest level of compound that results in no growth (Diplodia natalensis; two day results): NI
lowest level of compound that results in no growth (Fusarium solani; five day results): NI
lowest level of compound that results in no growth (Fusarium solani; two day results): p at 50
lowest level of compound that results in no growth (Alternaria helianthi; five day results): NI
lowest level of compound that results in no growth (Alternaria helianthi; two day results): p at 50
lowest level of compound that results in no growth (Stagonospora nodorum; five day results): NI
lowest level of compound that results in no growth (Stagonospora nodorum; two day results): NI
lowest level of compound that results in no growth (Tapesia acuformis; five day results): NI
lowest level of compound that results in no growth (Tapesia acuformis; two day results): NI

Pseudomycin C′
lowest level of compound that results in no growth (Geotrichim candidum; five day results): 6.25 µg/mL
lowest level of compound that results in no growth (Geotrichim candidum; two day results): 1.56 µg/mL
lowest level of compound that results in no growth (Septoria passerinii; five day results): 0.0625 µg/mL and 0.06 µg/mL
lowest level of compound that results in no growth (Septoria passerinii; two day results): 0.06 µg/mL
lowest level of compound that results in no growth (Penicillium roqueforti; five day results): p at 50
lowest level of compound that results in no growth (Penicillium roqueforti; two day results): 1.56 µg/mL
lowest level of compound that results in no growth [1, 4]: 0.125 µg/mL
lowest level of compound that results in no growth [1, 5]: 0.25 µg/mL
lowest level of compound that results in no growth (Ustilago maydis; five day results): 0.25 µg/mL
lowest level of compound that results in no growth (Ustilago maydis; two day results): 0.25 µg/mL
lowest level of compound that results in no growth (Monilinia sp.; five day results): 6.25 µg/mL
lowest level of compound that results in no growth (Monilinia sp.; two day results): 3.12 µg/mL
lowest level of compound that results in no growth (Rhizoctonia solani; five day results): p at 50
lowest level of compound that results in no growth (Rhizoctonia solani; two day results): p at 50
lowest level of compound that results in no growth [2, 4]: 1.56 µg/mL
lowest level of compound that results in no growth [2, 5]: 1.56 µg/mL
lowest level of compound that results in no growth (Drechslera portulacae; [6]): 0.5 µg/mL
lowest level of compound that results in no growth (Drechslera portulacae; two day results): 0.05 µg/mL
lowest level of compound that results in no growth (Septoria tritici; five day results): 0.25 µg/mL
lowest level of compound that results in no growth (Septoria tritici; two day results): 0.125 µg/mL
lowest level of compound that results in no growth (Phoma chrysamthecola): NI
lowest level of compound that results in no growth (Aphanomyces sp.; five day results): p at 50
lowest level of compound that results in no growth (Aphanomyces sp.; two day results): 25 µg/mL
lowest level of compound that results in no growth (Drechslera teres; five day results): NI
lowest level of compound that results in no growth (Drechslera teres; two day results): NI
lowest level of compound that results in no growth (Phytophthora cinnemani; five day results): NI
lowest level of compound that results in no growth (Phytophthora cinnemani; two day results): NI
lowest level of compound that results in no growth ([3]; five day results): NI
lowest level of compound that results in no growth ([3]; two day results): NI
lowest level of compound that results in no growth (Phytophthora ultimum; five day results): NI
lowest level of compound that results in no growth (Phytophthora ultimum; two day results): NI
lowest level of compound that results in no growth (Diplodia natalensis; five day results): NI
lowest level of compound that results in no growth (Diplodia natalensis; two day results): NI
lowest level of compound that results in no growth (Fusarium solani; five day results): NI
lowest level of compound that results in no growth (Fusarium solani; two day results): NI
lowest level of compound that results in no growth (Alternaria helianthi; five day results): NI
lowest level of compound that results in no growth (Alternaria helianthi; two day results): p at 50
lowest level of compound that results in no growth (Stagonospora nodorum; five day results): NI
lowest level of compound that results in no growth (Stagonospora nodorum; two day results): NI
lowest level of compound that results in no growth (Tapesia acuformis; five day results): NI
lowest level of compound that results in no growth (Tapesia acuformis; two day results): NI
